{
  "source": "paper PMC8550792",
  "about": "“Evolution of kinase polypharmacology across HSP90 drug discovery” (Cell Chemical Biology, 2021)",
  "test_in_all_cases": "biochemical",
  "format_in_all_cases": "biochemical",
  "key": {"382 unique human kinases [1]": {"molecular_target": "T1, 382 unique human kinases (Homo sapiens, UniProt Q7L7X3)", "T1 construct": "purchased Reaction Biology (HotSpot contract assay)", "T1 sequence (Q7L7X3 1-1001)": "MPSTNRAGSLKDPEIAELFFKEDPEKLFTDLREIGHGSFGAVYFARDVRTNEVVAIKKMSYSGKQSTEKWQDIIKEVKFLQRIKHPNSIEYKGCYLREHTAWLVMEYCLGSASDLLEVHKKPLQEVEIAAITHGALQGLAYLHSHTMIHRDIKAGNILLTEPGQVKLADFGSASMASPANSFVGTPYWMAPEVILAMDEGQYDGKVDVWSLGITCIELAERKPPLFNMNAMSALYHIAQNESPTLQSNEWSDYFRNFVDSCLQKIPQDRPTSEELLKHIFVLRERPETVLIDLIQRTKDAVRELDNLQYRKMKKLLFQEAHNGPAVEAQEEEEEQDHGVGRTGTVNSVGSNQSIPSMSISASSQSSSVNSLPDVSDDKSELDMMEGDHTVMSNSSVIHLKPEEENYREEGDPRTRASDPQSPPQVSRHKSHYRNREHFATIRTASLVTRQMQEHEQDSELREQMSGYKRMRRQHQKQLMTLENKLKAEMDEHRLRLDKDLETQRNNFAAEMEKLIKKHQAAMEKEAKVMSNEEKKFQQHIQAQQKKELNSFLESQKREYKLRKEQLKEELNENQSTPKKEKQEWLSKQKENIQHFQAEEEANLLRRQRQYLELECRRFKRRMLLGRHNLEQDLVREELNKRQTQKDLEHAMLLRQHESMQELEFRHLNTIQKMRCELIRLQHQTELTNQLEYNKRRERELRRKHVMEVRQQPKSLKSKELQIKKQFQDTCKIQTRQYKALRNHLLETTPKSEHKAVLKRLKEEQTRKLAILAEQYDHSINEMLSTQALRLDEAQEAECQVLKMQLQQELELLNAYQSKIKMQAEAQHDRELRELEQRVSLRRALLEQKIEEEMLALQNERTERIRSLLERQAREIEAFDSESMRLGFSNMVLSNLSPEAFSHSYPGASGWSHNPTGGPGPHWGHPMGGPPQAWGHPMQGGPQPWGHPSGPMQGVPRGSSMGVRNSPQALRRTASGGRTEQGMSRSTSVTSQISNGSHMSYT", "conditions": "kinase TAOK1, compound 10 uM; for remaining activity at 10 µM: read-out: % Enzyme Activity (relative to DMSO controls)"}, "382 unique human kinases [2]": {"molecular_target": "T2, 382 unique human kinases (Homo sapiens, UniProt Q14164)", "T2 construct": "purchased Reaction Biology (HotSpot contract assay)", "T2 sequence (Q14164 1-716)": "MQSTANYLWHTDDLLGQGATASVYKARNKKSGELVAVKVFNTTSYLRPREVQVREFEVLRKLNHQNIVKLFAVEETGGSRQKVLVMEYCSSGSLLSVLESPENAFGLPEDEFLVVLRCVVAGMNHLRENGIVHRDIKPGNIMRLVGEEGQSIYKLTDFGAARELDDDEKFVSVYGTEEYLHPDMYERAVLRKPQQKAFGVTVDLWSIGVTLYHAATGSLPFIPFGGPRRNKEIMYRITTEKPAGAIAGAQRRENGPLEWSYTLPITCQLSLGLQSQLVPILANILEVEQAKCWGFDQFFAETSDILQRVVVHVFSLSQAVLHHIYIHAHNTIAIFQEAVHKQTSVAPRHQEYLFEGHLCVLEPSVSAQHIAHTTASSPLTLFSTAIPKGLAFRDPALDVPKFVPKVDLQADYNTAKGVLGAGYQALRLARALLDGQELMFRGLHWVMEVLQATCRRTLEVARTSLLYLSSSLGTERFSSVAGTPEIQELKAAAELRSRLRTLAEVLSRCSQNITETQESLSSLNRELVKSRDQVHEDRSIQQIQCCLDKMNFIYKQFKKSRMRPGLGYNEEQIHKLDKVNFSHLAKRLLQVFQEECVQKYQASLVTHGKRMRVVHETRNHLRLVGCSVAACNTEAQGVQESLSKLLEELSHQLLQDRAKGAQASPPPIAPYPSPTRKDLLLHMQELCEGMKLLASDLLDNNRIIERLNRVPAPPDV", "conditions": "kinase IKKe/IKBKE, compound 10 uM; for remaining activity at 10 µM: read-out: % Enzyme Activity (relative to DMSO controls)"}, "382 unique human kinases [3]": {"molecular_target": "T3, 382 unique human kinases (Homo sapiens, UniProt Q8TF76)", "T3 construct": "purchased Reaction Biology (HotSpot contract assay)", "T3 sequence (Q8TF76 1-798)": "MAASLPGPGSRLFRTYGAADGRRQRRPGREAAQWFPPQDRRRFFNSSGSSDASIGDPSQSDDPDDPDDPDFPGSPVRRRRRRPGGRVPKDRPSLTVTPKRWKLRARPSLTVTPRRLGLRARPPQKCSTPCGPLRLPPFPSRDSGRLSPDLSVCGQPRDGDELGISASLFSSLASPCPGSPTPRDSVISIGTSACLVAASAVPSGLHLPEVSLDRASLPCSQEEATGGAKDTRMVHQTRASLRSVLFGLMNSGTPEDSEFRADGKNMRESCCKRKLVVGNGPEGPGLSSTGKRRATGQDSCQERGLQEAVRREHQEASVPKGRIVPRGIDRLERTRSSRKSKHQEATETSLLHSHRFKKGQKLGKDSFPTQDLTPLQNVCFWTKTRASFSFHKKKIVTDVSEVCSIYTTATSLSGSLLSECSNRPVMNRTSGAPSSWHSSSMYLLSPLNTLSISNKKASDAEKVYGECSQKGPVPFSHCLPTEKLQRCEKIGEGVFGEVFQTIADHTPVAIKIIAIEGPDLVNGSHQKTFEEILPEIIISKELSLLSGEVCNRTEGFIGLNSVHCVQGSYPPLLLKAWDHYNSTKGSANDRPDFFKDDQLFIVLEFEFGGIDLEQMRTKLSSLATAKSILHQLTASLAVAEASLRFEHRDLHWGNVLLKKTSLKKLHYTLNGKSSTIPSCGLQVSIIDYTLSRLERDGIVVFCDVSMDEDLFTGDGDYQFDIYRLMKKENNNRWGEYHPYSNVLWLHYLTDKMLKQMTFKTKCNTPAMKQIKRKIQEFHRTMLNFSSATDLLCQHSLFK", "conditions": "Haspin, 10 uM; for remaining activity at 10 µM: read-out: % Enzyme Activity (relative to DMSO controls)"}, "382 unique human kinases [4]": {"molecular_target": "T4, 382 unique human kinases (Homo sapiens, UniProt P07949, R749T)", "T4 construct": "purchased Reaction Biology (HotSpot contract assay)", "T4 sequence (P07949 29-1114 R749T)": "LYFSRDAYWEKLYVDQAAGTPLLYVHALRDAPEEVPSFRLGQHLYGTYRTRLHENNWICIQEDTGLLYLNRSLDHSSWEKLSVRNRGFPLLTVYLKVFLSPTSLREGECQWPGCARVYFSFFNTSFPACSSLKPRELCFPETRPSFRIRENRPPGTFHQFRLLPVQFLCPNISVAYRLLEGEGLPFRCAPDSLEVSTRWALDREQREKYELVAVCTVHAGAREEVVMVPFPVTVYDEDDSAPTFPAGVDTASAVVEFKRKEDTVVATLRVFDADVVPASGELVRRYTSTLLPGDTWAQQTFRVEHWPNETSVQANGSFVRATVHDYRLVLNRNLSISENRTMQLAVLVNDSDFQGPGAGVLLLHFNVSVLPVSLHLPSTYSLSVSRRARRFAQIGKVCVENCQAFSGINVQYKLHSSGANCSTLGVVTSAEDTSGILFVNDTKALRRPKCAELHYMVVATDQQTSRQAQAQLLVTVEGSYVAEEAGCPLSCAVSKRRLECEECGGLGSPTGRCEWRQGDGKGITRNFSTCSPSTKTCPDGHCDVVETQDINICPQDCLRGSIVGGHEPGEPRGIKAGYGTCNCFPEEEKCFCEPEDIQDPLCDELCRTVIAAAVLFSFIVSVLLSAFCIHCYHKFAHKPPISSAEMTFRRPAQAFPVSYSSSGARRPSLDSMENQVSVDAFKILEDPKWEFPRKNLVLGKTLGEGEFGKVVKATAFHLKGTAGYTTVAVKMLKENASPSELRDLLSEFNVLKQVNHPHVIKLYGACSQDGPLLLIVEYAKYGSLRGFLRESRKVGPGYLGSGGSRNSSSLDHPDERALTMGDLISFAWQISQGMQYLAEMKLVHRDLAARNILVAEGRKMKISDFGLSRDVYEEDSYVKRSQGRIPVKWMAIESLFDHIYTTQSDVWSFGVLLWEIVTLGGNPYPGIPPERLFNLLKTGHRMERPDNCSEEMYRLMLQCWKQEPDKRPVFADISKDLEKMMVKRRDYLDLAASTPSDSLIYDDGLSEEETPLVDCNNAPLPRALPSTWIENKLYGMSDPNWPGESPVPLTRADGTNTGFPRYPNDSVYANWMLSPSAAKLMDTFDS", "conditions": "RET (R749T), 10 uM; for remaining activity at 10 µM: read-out: % Enzyme Activity (relative to DMSO controls)"}, "382 unique human kinases [5]": {"molecular_target": "T5, 382 unique human kinases (Homo sapiens, UniProt Q9UM73, F1174S)", "T5 construct": "purchased Reaction Biology (HotSpot contract assay)", "T5 sequence (Q9UM73 19-1620 F1174S)": "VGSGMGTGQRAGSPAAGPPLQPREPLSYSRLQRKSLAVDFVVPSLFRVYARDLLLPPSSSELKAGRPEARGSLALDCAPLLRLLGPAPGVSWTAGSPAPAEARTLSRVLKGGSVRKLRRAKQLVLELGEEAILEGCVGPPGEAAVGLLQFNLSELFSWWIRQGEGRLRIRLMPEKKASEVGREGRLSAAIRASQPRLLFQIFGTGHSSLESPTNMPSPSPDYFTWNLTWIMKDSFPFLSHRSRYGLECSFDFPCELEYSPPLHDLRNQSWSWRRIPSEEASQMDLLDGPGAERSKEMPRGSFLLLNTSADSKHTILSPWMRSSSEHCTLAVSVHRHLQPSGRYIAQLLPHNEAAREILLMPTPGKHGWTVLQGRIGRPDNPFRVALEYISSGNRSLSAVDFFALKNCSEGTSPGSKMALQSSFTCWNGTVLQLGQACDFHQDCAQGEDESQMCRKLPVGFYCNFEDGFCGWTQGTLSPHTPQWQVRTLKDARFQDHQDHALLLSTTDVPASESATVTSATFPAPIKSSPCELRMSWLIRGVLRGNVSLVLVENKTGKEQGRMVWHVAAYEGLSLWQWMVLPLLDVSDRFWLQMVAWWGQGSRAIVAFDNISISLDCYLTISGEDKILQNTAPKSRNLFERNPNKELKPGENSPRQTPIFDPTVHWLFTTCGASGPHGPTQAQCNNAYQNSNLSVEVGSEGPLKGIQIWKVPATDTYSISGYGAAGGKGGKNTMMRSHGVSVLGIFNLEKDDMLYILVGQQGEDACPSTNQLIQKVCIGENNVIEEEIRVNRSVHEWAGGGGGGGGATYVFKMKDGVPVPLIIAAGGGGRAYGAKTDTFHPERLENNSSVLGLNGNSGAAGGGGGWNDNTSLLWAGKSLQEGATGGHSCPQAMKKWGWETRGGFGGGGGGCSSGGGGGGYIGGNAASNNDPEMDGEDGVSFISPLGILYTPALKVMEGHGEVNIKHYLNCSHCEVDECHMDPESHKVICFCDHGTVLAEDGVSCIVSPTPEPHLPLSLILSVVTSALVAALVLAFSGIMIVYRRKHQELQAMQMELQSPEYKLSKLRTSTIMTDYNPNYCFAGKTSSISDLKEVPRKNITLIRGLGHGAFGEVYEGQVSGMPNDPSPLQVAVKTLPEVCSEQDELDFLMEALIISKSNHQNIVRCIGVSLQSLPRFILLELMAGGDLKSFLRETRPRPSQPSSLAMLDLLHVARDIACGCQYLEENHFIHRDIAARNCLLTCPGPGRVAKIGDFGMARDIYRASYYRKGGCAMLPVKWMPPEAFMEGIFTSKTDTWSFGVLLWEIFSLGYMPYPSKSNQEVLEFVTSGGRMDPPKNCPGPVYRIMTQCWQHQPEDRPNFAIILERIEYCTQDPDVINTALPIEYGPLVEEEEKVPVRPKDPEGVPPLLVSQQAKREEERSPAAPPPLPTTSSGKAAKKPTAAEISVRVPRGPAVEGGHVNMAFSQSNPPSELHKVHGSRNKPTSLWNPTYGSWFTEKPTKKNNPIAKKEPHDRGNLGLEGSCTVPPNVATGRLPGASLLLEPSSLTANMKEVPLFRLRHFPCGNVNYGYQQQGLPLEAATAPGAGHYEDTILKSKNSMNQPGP", "conditions": "ALK (F1174S), [ATP] 20 µM, compound 10 uM; for remaining activity at 10 µM: read-out: % Enzyme Activity (relative to DMSO controls)"}, "382 unique human kinases [6]": {"molecular_target": "T6, 382 unique human kinases (Homo sapiens, UniProt P37023)", "T6 construct": "purchased Reaction Biology (HotSpot contract assay)", "T6 sequence (P37023 22-503)": "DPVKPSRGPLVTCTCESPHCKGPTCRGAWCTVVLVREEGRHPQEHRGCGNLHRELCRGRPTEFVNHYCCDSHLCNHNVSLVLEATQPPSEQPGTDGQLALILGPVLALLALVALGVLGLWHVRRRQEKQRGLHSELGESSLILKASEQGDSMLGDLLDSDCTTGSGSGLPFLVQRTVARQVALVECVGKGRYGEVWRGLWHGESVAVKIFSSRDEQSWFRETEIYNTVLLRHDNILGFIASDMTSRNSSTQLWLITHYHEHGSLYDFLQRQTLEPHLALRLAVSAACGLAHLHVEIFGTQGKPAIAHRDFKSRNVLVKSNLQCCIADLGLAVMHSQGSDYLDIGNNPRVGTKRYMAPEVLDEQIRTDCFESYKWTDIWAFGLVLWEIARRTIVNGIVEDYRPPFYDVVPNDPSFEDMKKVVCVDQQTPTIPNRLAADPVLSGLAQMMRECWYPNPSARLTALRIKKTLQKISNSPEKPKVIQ", "conditions": "ALK1/ACVRL1, 10 uM; for remaining activity at 10 µM: read-out: % Enzyme Activity (relative to DMSO controls)"}, "382 unique human kinases [7]": {"molecular_target": "T7, 382 unique human kinases (Homo sapiens, UniProt Q05655)", "T7 construct": "purchased Reaction Biology (HotSpot contract assay)", "T7 sequence (Q05655 whole entry)": "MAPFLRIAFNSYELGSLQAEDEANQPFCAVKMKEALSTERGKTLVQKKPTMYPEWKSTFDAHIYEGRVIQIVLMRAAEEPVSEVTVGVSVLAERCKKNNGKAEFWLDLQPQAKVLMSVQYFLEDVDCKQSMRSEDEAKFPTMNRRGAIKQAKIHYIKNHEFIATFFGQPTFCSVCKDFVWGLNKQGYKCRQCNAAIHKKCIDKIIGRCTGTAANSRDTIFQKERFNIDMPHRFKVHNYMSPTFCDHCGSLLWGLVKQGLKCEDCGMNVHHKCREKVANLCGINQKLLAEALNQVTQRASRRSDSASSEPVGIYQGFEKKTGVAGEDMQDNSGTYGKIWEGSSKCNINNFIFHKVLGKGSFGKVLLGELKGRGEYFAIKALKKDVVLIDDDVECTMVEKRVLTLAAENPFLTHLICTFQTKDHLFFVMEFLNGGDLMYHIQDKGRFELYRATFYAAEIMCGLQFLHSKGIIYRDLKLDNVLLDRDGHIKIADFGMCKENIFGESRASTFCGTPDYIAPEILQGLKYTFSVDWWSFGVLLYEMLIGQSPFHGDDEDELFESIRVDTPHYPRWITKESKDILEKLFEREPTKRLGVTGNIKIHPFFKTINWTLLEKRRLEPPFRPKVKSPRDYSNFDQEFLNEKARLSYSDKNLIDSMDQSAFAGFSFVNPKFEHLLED", "conditions": "PKCd, 10 uM; for remaining activity at 10 µM: read-out: % Enzyme Activity (relative to DMSO controls)"}},
  "data": [
    {"molecule": "CC(C)c1cc(-c2n[nH]c(=O)n2-c2ccc3c(ccn3C)c2)c(O)cc1O", "note": "[Ganetespib (STA9090)]", "values": [
      {"measurement": "remaining activity at 10 µM", "setting": "382 unique human kinases [1]", "result": 88.8, "unit": "%"},
      {"measurement": "remaining activity at 10 µM", "setting": "382 unique human kinases [2]", "result": 95.7, "unit": "%"},
      {"measurement": "remaining activity at 10 µM", "setting": "382 unique human kinases [3]", "result": 75.3, "unit": "%"}
    ]},
    {"molecule": "CC(C)c1cc(-c2n[nH]c(=O)n2-c2ccc3c(ccn3C)c2)c(O)cc1O", "note": "[Ganetespib]", "values": [
      {"measurement": "remaining activity at 10 µM", "setting": "382 unique human kinases [4]", "result": 106, "unit": "%"},
      {"measurement": "remaining activity at 10 µM", "setting": "382 unique human kinases [5]", "result": 50.7, "unit": "%"},
      {"measurement": "remaining activity at 10 µM", "setting": "382 unique human kinases [6]", "result": 95.6, "unit": "%"},
      {"measurement": "remaining activity at 10 µM", "setting": "382 unique human kinases [7]", "result": 92, "unit": "%"}
    ]},
    {"molecule": "CCNC(=O)c1noc(-c2cc(C(C)C)c(O)cc2O)c1-c1ccc(CN2CCOCC2)cc1", "note": "[Luminespib (AUY-922)]", "values": [
      {"measurement": "% Enzyme Activity (relative to DMSO controls)", "setting": "382 unique human kinases [1]", "result": 92.28, "unit": "%"},
      {"measurement": "remaining activity at 10 µM", "setting": "382 unique human kinases [1]", "result": 95, "unit": "%"},
      {"measurement": "% Enzyme Activity (relative to DMSO controls)", "setting": "382 unique human kinases [2]", "result": 104.37, "unit": "%"},
      {"measurement": "remaining activity at 10 µM", "setting": "382 unique human kinases [2]", "result": 109, "unit": "%"},
      {"measurement": "% Enzyme Activity (relative to DMSO controls)", "setting": "382 unique human kinases [3]", "result": 89.64, "unit": "%"},
      {"measurement": "remaining activity at 10 µM", "setting": "382 unique human kinases [3]", "result": 93, "unit": "%"}
    ]},
    {"molecule": "CCNC(=O)c1noc(-c2cc(C(C)C)c(O)cc2O)c1-c1ccc(CN2CCOCC2)cc1", "note": "[Luminespib]", "values": [
      {"measurement": "% Enzyme Activity (relative to DMSO controls)", "setting": "382 unique human kinases [4]", "result": 97.79, "unit": "%"},
      {"measurement": "remaining activity at 10 µM", "setting": "382 unique human kinases [4]", "result": 98.4, "unit": "%"},
      {"measurement": "% Enzyme Activity (relative to DMSO controls)", "setting": "382 unique human kinases [5]", "result": 97.77, "unit": "%"},
      {"measurement": "remaining activity at 10 µM", "setting": "382 unique human kinases [5]", "result": 98.7, "unit": "%"},
      {"measurement": "% Enzyme Activity (relative to DMSO controls)", "setting": "382 unique human kinases [6]", "result": 102.87, "unit": "%"},
      {"measurement": "remaining activity at 10 µM", "setting": "382 unique human kinases [6]", "result": 105, "unit": "%"},
      {"measurement": "% Enzyme Activity (relative to DMSO controls)", "setting": "382 unique human kinases [7]", "result": 95.84, "unit": "%"},
      {"measurement": "remaining activity at 10 µM", "setting": "382 unique human kinases [7]", "result": 96.4, "unit": "%"}
    ]}
  ]
}
